Reference: patent publication US8471063B2, “Michael systems as transglutaminase inhibitors” (Zedira GmbH, priority 2006, dated 2013)
*1 amine or outer side, *2 acyl side, *3 side chain or, on linkers, in order; H or OH if unused. Where a SMILES comes first, the peptide text is derived from it. [ ]: non-standard residue; d: D form. The star is where a group is joined. Nle(5E-ene,6-CO2Et) = CCOC(=O)/C=C/CC[C@H](N)C(=O)O; X7 = O=C(/C=C/CC[C@H](N[*:1])C(=O)[*:2])OCc1ccccc1; Tic = O=C(O)[C@@H]1Cc2ccccc2CN1; Cbz = O=C(OCc1ccccc1)*

Molecular target: T1, recombinant human tissue transglutaminase (His6-rh-TG2) (Homo sapiens, UniProt P21980)
T1 sequence (P21980 1-687): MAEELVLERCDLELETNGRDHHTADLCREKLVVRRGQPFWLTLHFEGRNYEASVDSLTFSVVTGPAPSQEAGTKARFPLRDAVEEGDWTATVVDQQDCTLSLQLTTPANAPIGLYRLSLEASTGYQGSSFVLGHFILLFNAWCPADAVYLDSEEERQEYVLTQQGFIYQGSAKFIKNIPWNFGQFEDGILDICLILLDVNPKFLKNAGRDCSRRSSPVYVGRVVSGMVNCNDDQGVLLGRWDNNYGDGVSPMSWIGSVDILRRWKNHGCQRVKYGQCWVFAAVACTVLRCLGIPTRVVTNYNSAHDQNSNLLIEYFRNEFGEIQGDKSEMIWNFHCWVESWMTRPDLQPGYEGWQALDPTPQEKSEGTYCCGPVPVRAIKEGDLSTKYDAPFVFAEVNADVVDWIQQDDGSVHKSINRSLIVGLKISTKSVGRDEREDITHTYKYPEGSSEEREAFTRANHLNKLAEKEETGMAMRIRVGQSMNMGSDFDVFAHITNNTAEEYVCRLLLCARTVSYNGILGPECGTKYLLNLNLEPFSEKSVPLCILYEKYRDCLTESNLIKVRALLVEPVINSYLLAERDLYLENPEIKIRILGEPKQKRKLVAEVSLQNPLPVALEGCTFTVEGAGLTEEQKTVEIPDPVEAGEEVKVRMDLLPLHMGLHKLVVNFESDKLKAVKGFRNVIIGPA
Assay: Inactivation of human tissue transglutaminase, fluorescence assay, IC50
Type: biochemical
Settings: 5 min preincubation, 37° C.
Procedure: 250 μg of lyophilized his-tagged recombinant human tissue transglutaminase (His6-rh-TG2) are reconstituted by the addition of 150 μl of water (resulting buffer 50 mM of NaH2PO4, 150 mM of NaCl, pH=8).
A 10 mM inhibitor stock solution in DMSO is prepared and diluted with buffer (50 mM of Tris-HCl, 10 mM of CaCl2, 5 mM of DTT, pH=7.5, respectively) to the 20-fold of the concentration desired for the inhibition mixture (at least 1/50 dilution resulting in 2% DMSO concentration).
900 μl of an assay solution composed of 55.56 mM of Tris, 11.11 mM of CaCl2, 0.11% PEG8000, 5.56 mM of DTT, 5.56 mM of glycine methyl ester and 50 μM of Abz-APE(CAD-DNP)QEA-OH, (patent number:), pH=7.5 are placed in a cuvette and brought to a temperature of 37° C. in the measuring cell of a spectrophotometer. 50 μl of the respective inhibitor solution are added to said solution (resulting in a concentration of less than 0.2% of DMSO in the mixture).
7 μl of the transglutaminase solution reconstituted above are diluted with 51 μl of buffer (50 mM of Tris, 100 mM of NaCl, 5 mM of DTT, pH=7.5). 50 μl of said enzyme solution (10 μg His6-rhTG2) are added to the assay solution containing the respective inhibitor concentration. The mixture is incubated for 5 min at 37° C. before the measurement is performed. λexc=313 nm and λem=418 nm, 15 min)
The resulting enzyme activity was measured by analyzing the slope of the straight line obtained by the increase in fluorescence.
DMSO is used instead of inhibitor stock solution in order to determine the non-inhibited enzyme activity. IC50 values are determined by plotting the resulting enzyme activity against the logarithm of the inhibitor concentration. IC50 is defined as the concentration of an inhibitor at which enzyme activity is reduced to 50% after 5 min of preincubation.

In the case of `COC(=O)C(CC(C)C)NC(=O)C1CCCN1C(=O)C(CCC(N)=O)NC(=O)C(CCC=CC#N)NC(=O)OCc1ccccc1` [Compound 3.2.11, N^α-benzyloxycarbonyl)-[(Z)-(L)-2-amino-6-cyano-hex-5-ene-dicarboxylic acid]-L-glutaminyl-L-prolinyl-L-leucine methyl ester], the IC50 (Table 2) is reported as 43000 nM.

`CCOC(=O)C=CC(=O)CC[C@H](NC(=O)OCc1ccccc1)C(=O)N[C@H](C(=O)N1CCC[C@H]1C(=O)N[C@@H](CC(C)C)C(=O)OC)C(C)C` [Compound 9, N^α-benzyloxycarbonyl-{[L-7-amino-4-oxo-oct-2-ene-dicarboxylic acid]-1-ethanoyl}-L-valinyl-L-prolinyl-leucine methyl ester] was tested, and the IC50 (Table 1) was 18000 nM.

With `COC(=O)/C=C/CC[C@H](NC(C)=O)C(=O)N[C@@H](CCC(N)=O)C(=O)N[C@@H](CCC(=O)O)C(=O)N[C@@H](C)C(=O)OC` [Compound 10, N^α-Acetyl-{[(E)-(L)-6-amino-hept-2-ene-dicarboxylic acid]-1-methanoyl}-L-glutaminyl-L-glutamyl-L-alanine methyl ester] the IC50 (Table 1) was 330 nM.

Compound `COC(=O)/C=C/CC[C@H](NC(C)=O)C(=O)N[C@@H](CCC(N)=O)C(=O)N[C@@H](CCC(=O)O)C(=O)OC` [Compound 11, N^α-acetyl-{[(E)-(L)-6-amino-hept-2-ene-dicarboxylic acid]-1-methanoyl}-L-glutaminyl-L-glutamyl methyl ester] has an IC50 (Table 1) of 2100 nM.

For `COC(=O)/C=C/CC[C@H](NC(=O)OCc1ccccc1)C(=O)N[C@@H](Cc1ccccc1)C(=O)N1CCC[C@H]1C(=O)N[C@@H](CC(C)C)C(=O)OC` [Compound 13, N^α-benzyloxycarbonyl-{[(E)-(L)-6-amino-hept-2-enedicarboxylic acid]-1-methanoyl}-L-phenylalaninyl-L-prolinyl-L-leucine methyl ester], the IC50 (Table 1) was 1500 nM.

For `COC(=O)/C=C/CC[C@H](NC(C)=O)C(=O)N[C@@H](Cc1ccc(F)cc1)C(=O)N1CCC[C@H]1C(=O)N[C@@H](CC(C)C)C(=O)OC` [Compound 14, N^α-acetyl-{[(E)-(L)-6-amino-hept-2-ene-dicarboxylic acid]-1-methanoyl}-L-(p-fluoro)-phenylalaninyl-L-prolinyl-L-leucine methyl ester], the IC50 (Table 1) was 1100 nM.

`COC(=O)/C=C/CC[C@H](NC(=O)OCc1ccccc1)C(=O)N[C@@H](Cc1ccc(F)cc1)C(=O)N1CCC[C@H]1C(=O)N[C@@H](CC(C)C)C(=O)OC` [Compound 15, N^α-benzyloxycarbonyl-{[(E)-(L)-6-amino-hept-2-ene-dicarboxylic acid]-1-methanoyl}-L-(p-fluoro)-phenylalaninyl-L-prolinyl-L-leucine methyl ester] was tested, and the IC50 (Table 1) was 880 nM.

Work on `CCOC(=O)/C=C/CC[C@H](NC(=O)OCc1ccccc1)C(=O)N[C@@H](CCC(N)=O)C(=O)N1CCC[C@H]1C(=O)N[C@@H](Cc1ccc(O)cc1)C(=O)OC` [Compound 19, N^α-benzyloxycarbonyl-{[(E)-(L)-6-amino-hept-2-ene-dicarboxylic acid]-1-ethanoyl}-L-glutaminyl-L-proline-L-tyrosine methyl ester] (Cbz-[Nle(5E-ene,6-CO2Et)]QPY-OMe) yielded an IC50 (Table 1) of 2400 nM.

`CCOC(=O)/C=C/CC[C@H](NC(=O)OCc1ccccc1)C(=O)N[C@@H](CCC(N)=O)C(=O)N1CCC[C@H]1C(=O)N[C@@H](CC(C)C)C(=O)OC` [Compound 20, N^α-benzyloxycarbonyl-{[(E)-(L)-6-amino-hept-2-ene-dicarboxylic acid]-1-ethanoyl}-L-glutaminyl-L-prolinyl-L-leucine methyl ester] (Cbz-[Nle(5E-ene,6-CO2Et)]QPL-OMe) showed an IC50 (Table 1) of 2000 nM.

For `CCOC(=O)C=CC(=O)CC[C@H](NC(C)=O)C(=O)N[C@@H](CCC(N)=O)C(=O)N1CCC[C@H]1C(=O)N[C@@H](CC(C)C)C(=O)OC` [Compound 22, N^α-acetyl-{[L-7-Amino-4-oxo-oct-2-ene-dicarboxylic acid]-1-ethanoyl}-L-glutaminyl-L-prolinyl-L-leucine methyl ester], the IC50 (Table 1) was 70 nM.

In the case of `COC(=O)[C@H](CC(C)C)NC(=O)[C@@H]1Cc2ccccc2CN1C(=O)[C@H](CCC(N)=O)NC(=O)[C@H](CC/C=C/C(=O)OCc1ccccc1)NC(=O)[C@@H]1CCCN1C(=O)[C@H](CCC(N)=O)NC(=O)[C@@H]1CCCN1C(=O)OCc1ccccc1` [Compound 41] (Cbz-PQP[X7]Q[Tic]L-OMe), the IC50 (Table 1) is reported as 215 nM.

With `CC(=O)NCCC(=O)N1CCCC(C(=O)C(CC/C=C/C(=O)OC(C)C)N2Cc3nc[nH]c3CC2C(=O)NC(CNC(N)=O)C(=O)NC(CC(C)C)C(=O)N2CCCC2C(=O)NC(Cc2ccc(Oc3ccc(O)cc3)cc2)C(=O)O)C1` (centres unmarked) [Compound 42] the IC50 (Table 1) was 4000 nM.

“N^α-(2-fluorobenzoyl)-{[L-7-amino-4-oxo-oct-2-ene-dicarboxylic acid]-1-methanoyl}-L-valinyl-L-4-fluoroprolinyl-leucine isopropyl ester [Compound 24]” was tested, and the IC50 (Table 1) was 8000 nM.

Compound “N^α-(5-methylisoxazol-3-carbonyl)-{[L-7-amino-4-oxo-oct-2-ene-dicarboxylic acid]-1-isopropanoyl}-L-valinyl-L-prolinyl-leucine methyl ester [Compound 23]” has an IC50 (Table 1) of 56 nM.

With “N^α-acetyl-{[(E)-(L)-6-Amino-hept-2-ene dicarboxylic acid]-1-methanoyl}-L-phenylalaninyl-L-prolinyl-L-leucine methyl ester [Compound 12]” the IC50 (Table 1) was 1800 nM.

“N^α-benzyloxycarbonyl)-[(Z)-(L)-2-amino-7-oxo-oct-5-ene-dicarboxylic acid]-L-glutaminyl-L-prolinyl-L-leucine methyl ester [Compound 3.2.10]” was tested, and the IC50 (Table 2) was 56000 nM.

Work on “N^α-benzyloxycarbonyl-{[(E)-(L)-6-amino-hept-2-ene-dicarboxylic acid]-1-ethanoyl}-L-leucinyl-L-prolinyl-L-glutamine methyl ester [Compound 21]” yielded an IC50 (Table 1) of 3200 nM.

Compound “[(E)-(L)-6-(2-Oxo-pyrrolidon-1-yl)hept-2-ene-dicarboxylic acid 1-ethanoyl]-L-valinyl-L-homoprolinyl-L-leucine methyl ester [Compound 16]” has an IC50 (Table 1) of 22000 nM.

For “[(E)-(L)-6-(2-oxo-pyrrolidon-1-yl)-hept-2-ene-dicarboxylic acid-1-ethanoyl]-L-cyclohexylglycinyl-L-homoprolinyl-L-leucine methyl ester [Compound 17]”, the IC50 (Table 1) was 35000 nM.

Work on “[(E)-(L)-6-(2-oxo-pyrrolidon-1-yl)-hept-2-ene-dicarboxylic acid-1-ethanoyl]-L-cyclohexylglycinyl-L-prolinyl-L-leucine methyl ester [Compound 18]” yielded an IC50 (Table 1) of 28000 nM.
